Where a name gives a salt, the structure may show the parent alone.
Test system: male spontaneously hypertensive rats
Assay: Decrease in systolic blood pressure in spontaneously hypertensive rats after intravenous bolus injection, indirect (tail-cuff) method
Format: in vivo, rat
Details: for Decrease in systolic blood pressure (mmHg) time after administration (hour) 0.5: 0.5 hour after administration; for Decrease in systolic blood pressure (mmHg) time after administration (hour) 4: 4 hours after administration
Description: As test animals, four male spontaneously hypertensive rats (weight 400 to 440 g) that were sufficiently adapted for feeding and in which hypertension was confirmed were used.
Physiological saline aqueous solution containing 2.5% Nicolle and 2.5% ethanol of sample was intravenously administered by bolus injection at a dose of 1 ml per 1 kg of body weight. Systolic blood pressure after administration was measured by the indirect (tail-cuff) method.

Compound	Decrease in systolic blood pressure (mmHg) time after administration (hour) 0.5 (dose 10 mg/kg i.v. bolus) [mmHg]	Decrease in systolic blood pressure (mmHg) time after administration (hour) 4 (dose 10 mg/kg i.v. bolus) [mmHg]	Decrease in systolic blood pressure (mmHg) time after administration (hour) 0.5 (dose 3 mg/kg i.v. bolus) [mmHg]	Decrease in systolic blood pressure (mmHg) time after administration (hour) 4 (dose 3 mg/kg i.v. bolus) [mmHg]
CCOC(=O)C(CCCN1CCC(=C2c3ccccc3C=Cc3ccccc32)CC1)C1CCCCC1.Cl (stereo not shown) [Example 220, Ethyl 2-cyclohexyl-5-(4-(5H-Dibenzo[a,d]cyclohepten-5-ylidene)-1-piperidinyl)valerate hydrochloride]	−148	−54		
COc1ccc(CN2CCC(=C3c4ccccc4C=Cc4ccccc43)CC2)cc1.Cl [Example 119, 4-(5H-Dibenzo[a,d]cyclohepten-5-ylidene)-1-(4-methoxybenzyl)piperidine hydrochloride]	−34	−5		
C1=Cc2ccccc2C(=C2CCN(CCCCCC3CCCCC3)CC2)c2ccccc21 [Example 11, 1-Cyclohexyl-5-(4-(5H-dibenzo[a,d]cyclohepten-5-ylidene)-1-piperidinyl)pentane hydrochloride]	−166			
COc1ccc(CCCCN2CCC(=C3c4ccccc4C=Cc4ccccc43)CC2)cc1OC.Cl [Example 221, 4-(5H-Dibenzo[a,d]cyclohepten-5-ylidene)-1-(4-(3′,4′-dimethoxyphenyl)butyl)piperidine hydrochloride]	−70	−13		
Cl.O=C1CCCCN1CCCCN1CCC(=C2c3ccccc3C=Cc3ccccc32)CC1 [Example 268, N-(4-(4-(5H-Dibenzo[a,d]cyclohepten-5-ylidene)-1-piperidinyl)-1-butyl)-2-piperidone hydrochloride]	−29	13		
Cl.O=[N+]([O-])c1ccccc1S(=O)(=O)NCCN1CCC(=C2c3ccccc3C=Cc3ccccc32)CC1 [Example 25, 4-(5H-Dibenzo[a,d]cyclohepten-5-ylidene)-1-(2-(2-nitrobenzenesulfonyl)aminoethyl)piperidine hydrochloride]	−8	−7		
Cl.Clc1ccccc1CN1CCC(=C2c3ccccc3C=Cc3ccccc32)CC1 [Example 128, 1-(2-Chlorobenzyl)-4-(5H-Dibenzo[a,d]cyclohepten-5-ylidene)piperidine hydrochloride]	−129	−8		
Cl.Fc1ccc(C2(CCCN3CCC(=C4c5ccccc5C=Cc5ccccc54)CC3)OCCO2)cc1 [Example 124]	−90	−20		
COc1ccc(C(=O)CCN2CCC(=C3c4ccccc4C=Cc4ccccc43)CC2)cc1OC.Cl [Example 168, 3-(4-(5H-Dibenzo[a,d]cyclohepten-5-ylidene)-1-piperidinyl)-3′,4′-dimethoxypropiophenone hydrochloride]	−108	0		
C1=Cc2ccccc2C(=C2CCN(Cc3ccncc3)CC2)c2ccccc21.Cl.Cl [Example 163, 4-(5H-Dibenzo[a,d]cyclohepten-5-ylidene)-1-(4-Picolyl)piperidine dihydrochloride]	−1	4		
1-(4-Methoxyxyxlohexyl)-4-(4-(5H-dibenzo[a,d]cyclohepten-5-ylidene)-1-piperidinyl)butane hydroxybutane hydrochloride [Example 208]	−131	−19		
CC(=O)Nc1ccc2c(c1)CC(CN1CCC(=C3c4ccccc4C=Cc4ccccc43)CC1)C2.Cl (stereo not shown) [Example 334, 5′-acetylamino-2-(4-(5H-Dibenzo[a,d]cyclohepten-5-ylidene)-1-piperidinyl)methylindan hydrochloride]			−130	−93
O=C(O)CCCN1CCC(=C2c3ccccc3C=Cc3ccccc32)CC1 [Example 200]	−10	−24		
C1=Cc2ccccc2C(=C2CCN(CCCC3CCCNC3)CC2)c2ccccc21.Cl.Cl (stereo not shown) [Example 281, 3-(4-(5H-Dibenzo[a,d]cyclohepten-5-ylidene)-1-piperidinyl)-1-(3-piperidinyl)propane dihydrochloride]	−31	−5		
COc1cccc(CN2CCC(=C3c4ccccc4CCc4ccccc43)CC2)c1.Cl [Example 184, 4-(10,11-dihydro-5H-dibenzo[a,d]cyclohepten-5-ylidene)-1-(3-methoxybenzyl)piperidine hydrochloride]	−16	−4		
COc1ccc(CCCN2CCC(=C3c4ccccc4C=Cc4ccccc43)CC2)cc1OC.Cl [Example 201, 4-(5H-Dibenzo[a,d]cyclohepten-5-ylidene)-1-(-3-(3′,4′-dimethoxyphenyl)propyl)piperidine hydrochloride]	−118	−21		
C1=Cc2ccccc2C(=C2CCN(Cc3cc4ccccc4[nH]3)CC2)c2ccccc21.Cl [Example 385, 4-(5H-Dibenzo[a,d]cyclohepten-5-ylidene)-1-(2-indolylmethyl)piperidine hydrochloride]	−123	−96		
COc1cc2c(cc1OC)CC(CCN1CCC(=C3c4ccccc4C=Cc4ccccc43)CC1)C2.Cl [Example 240]			−118	−5
Cl.N#Cc1ccc(CN2CCC(=C3c4ccccc4C=Cc4ccccc43)CC2)cc1 [Example 160, 1-(4-Cyanobenzyl)-4-(5H-dibenzo[a,d]cyclohepten-5-ylidene)piperidine hydrochloride]	−3	−10		
Cl.O=[N+]([O-])c1ccc2c(c1)CC(CN1CCC(=C3c4ccccc4C=Cc4ccccc43)CC1)C2 (stereo not shown) [Example 332, 2-(4-(5H-Dibenzo[a,d]cyclohepten-5-ylidene)-1-piperidinyl)methyl-5′-nitroindan hydrochloride]	−111	−57		
CCC(C#N)(CCCN1CCC(=C2c3ccccc3C=Cc3ccccc32)CC1)c1cccc(C(F)(F)F)c1.Cl (stereo not shown) [Example 149, 5-(4-(5H-Dibenzo[a,d]cyclohepten-5-ylidene)-1-piperidinyl)-2-ethyl-2-(3-trifluoromethylphenyl)valeronitrile hydrochloride]	−116	−32		
C1=Cc2ccccc2C(=C2CCN(CCOCC3CCCCC3)CC2)c2ccccc21.Cl [Example 279]			−83	−24
CCCCCCCCCCCCN1CCC(=C2c3ccccc3C=Cc3ccccc32)CC1.Cl [Example 4, 4-(5H-Dibenzo[a,d]cyclohepten-5-ylidene)-1-dodecylpiperidine hydrochloride]	−76	0		
COc1ccc(C(=O)NCCN2CCCCC2=C2c3ccccc3C=Cc3ccccc32)c(OC)c1.Cl [Example 292, N-(2-(5H-Dibenzo[a,d]cyclohepten-5-ylidene)-1-piperidinyl)ethyl-2,4-dimethoxybenzamide hydrochloride]			−31	3
Cl.O=C(CCCN1CCC(=C2c3ccccc3C=Cc3ccccc32)CC1)C1CCCCC1 [Example 176, 1-Cyclohexyl-3,(4-(5H-dibenzo[a,d]cyclohepten-5-ylidene)-1-piperidinyl)propylketone hydrochloride]	−105	−10		
COc1ccc(CCC(=O)N2CCC(=C3c4ccccc4C=Cc4ccccc43)CC2)cc1OC [Example 202, 4-(5H-Dibenzo[a,d]cyclohepten-5-ylidene)-1-(3-(3′,4′-dimethoxyphenyl)propanoyl)piperidine]	−54	−16		
C1=Cc2ccccc2C(=C2CCN(Cc3ccc4ccccc4c3)CC2)c2ccccc21.Cl [Example 212, 4-(5H-Dibenzo[a,d]cyclohepten-5-ylidene)-1-(2-naphthylmethyl)piperidine hydrochloride]	−155			

From patent USRE38257E1, “Piperdine derivatives and hypotensives containing the same” (Ajinomoto Co., Inc., priority 1988, dated 2003)
